Assay: Safety and tolerability of oral (Z)-Endoxifen in healthy female volunteers
Assay type: in vivo, human
Text: Study assessments included taking the subjects medical history, including evaluation of any on-study adverse events and concomitant medication use; height and weight; physical examination; periodic vital signs (body temperature, heart rate, respiratory rate, blood pressure); periodic 12-lead ECGs. […] Specific assessments to evaluate treatment safety included the following: the frequency and type of adverse events, clinical laboratory testing, 12-lead ECGs and vital signs. A modified FACT-ES® scoring questionnaire was used to assess symptomatology.
Safety endpoints were summarized by dose cohort, with placebos pooled across cohorts. Treatment-emergent AEs were coded using the latest version of MedDRA by System Organ Class (SOC) and Preferred Term, classified from verbatim terms. The incidence and frequency of AEs, and SAEs, were summarized by cohort according to SOC and Preferred Terms, and by severity and relationship. The duration of AEs was determined and included in listings, along with the action taken and outcome. Vital signs, ECG and safety laboratory parameters were summarized at each scheduled time point using descriptive statistics. Post-dose assessments were compared with baseline measurements. The incidence of laboratory abnormalities was summarized. Physical examination findings were presented in listings.

CC/C(=C(\c1ccc(O)cc1)c1ccc(OCCNC)cc1)c1ccccc1 [(Z)-Endoxifen, (Z)-4-(1-(4-(2-(methylamino)ethoxy)phenyl)-2-phenylbut-1-enyl) phenol]
subjects with treatment related AEs of moderate severity (5 of 18 subjects): 28% | subjects with treatment-emergent AEs deemed related to study drug (15 of 18 subjects, oral 1-4 mg): 83% | number of treatment related AEs of moderate severity (18 subjects): 6 AEs | number of treatment-related AEs (18 subjects, oral 1-4 mg): 41 AEs | severity of AEs (all AEs mild (75 of 84) or moderate (9 of 84), incl. placebo): no AEs classified as severe | adverse events reported only in subjects who received (Z)-Endoxifen (human, in vivo): Upper respiratory infection, hot flush, abdominal distension, dry mouth, and menstruation delayed | safety by clinical laboratory tests, vital signs, ECG, FACT-ES versus placebo (human, in vivo): no clear differences in safety

Source: patent US12275684B2, “Methods for making and using endoxifen” (Atossa Therapeutics, Inc., priority 2017, dated 2025)
